Test results published in patent publication US6274587A, “Tricyclic dihydropyrimidine potassium channel openers” (Abbott Laboratories, priority 1999, dated 2001).

Key:
[1] = tested on: potassium channels; experiment: Membrane Hyperpolarization (MHP) in Guinea-Pig Bladder (GPB) Cells, FLIPR with DiBAC(4)3; type: cell-based; settings: for EC50: concentration eliciting 50% of the test sample's maximal response; for Maximal Response (% P1075): maximal steady-state hyperpolarization relative to 10 μM P1075 (100%)
Protocol: Compounds were evaluated for potassium channel opening activity using primary cultured quinea-pig urinary bladder (GPB) cells.
For the preparation of urinary bladder smooth muscle cells, urinary bladders were removed from male quinea-pigs (Hartley, Charles River, Wilmington, Mass.) weighing 300-400 g and placed in ice-cold Ca^2+ -free Krebs solution (Composition, mM: KCl, 2.7; KH2 PO4, 1.5; NaCl, 75; Na2 HPO4, 9.6; Na2 HPO4.7H2 O, 8; MgSO4, 2; glucose, 5; HEPES, 10; pH 7.4). Cells were isolated by enzymatic dissociation as previously described with minor modifications in (Klockner, U. and Isenberg, G., Pflugers Arch. 1985, 405, 329-339), hereby incorporated by reference. The bladder was cut into small sections and incubated in 5 mL of the Kreb's solution containing 1 mg/mL collagenase (Sigma, St. Louis, Mo.) and 0.2 mg/mL pronase (Calbiochem, La Jolla, Calif.) with continuous stirring in a cell incubator for 30 minutes. The mixture was then centrifuged at 1300×g for 5 minutes, and the pellet resuspended in Dulbecco's PBS (GIBCO, Gaithersburg, Md.) and recentrifuged to remove residual enzyme. The cell pellet was resuspended in 5 mL growth media (composition: Dulbecco's modified Eagle's medium supplemented with 10% fetal bovine serum, 100 units/niL penicillin, 100 units/mL streptomycin and […] amphotericin B) and further dissociated by pipetting the suspension through a flame-polished Pasteur pipette and passing it through a polypropylene mesh membrane (Spectrum, Houston, Tex.). The cell density was adjusted to 100,000 cells/mL by resuspension in growth media. Cells were plated in clear-bottomed black 96-well plates (Packard) for membrane potential studies at a density of 20,000 cells/well and maintained in a cell incubator with 90% air: 10% CO2 until confluent. Cells were confirmed to be of smooth muscle type by cytoskeletal staining using a monoclonal mouse anti human-α-smooth muscle actin (Biomeda, Foster City, Calif.).
Functional activity at potassium channels was measured by evaluating changes in membrane potential using the bis-oxonol dye DiBAC(4)3 (Molecular Probes) in a 96-well cell-based kinetic assay system, Fluorescent Imaging Plate Reader (FLIPR) (K. S. Schroeder et al., J. Biomed. Screen., v. 1 pp. 75-81 (1996)), hereby incorporated by reference. DiBAC(4)3 is an anionic potentiometric probe which partitions between cells and extracellular solution in a membrane potential-dependent manner. With increasing membrane potential (for example, K^+ depolarization), the probe further partitions into the cell; this is measured as an increase in fluorescence due to dye interaction with intracellular lipids and proteins. Conversely, decreasing membrane potential (hyperpolarizationby potassium channel openers) evokes a decrease in fluorescence.
Confluent quinea-pig urinary bladder cells cultured in black clear-bottomed96-well plates were rinsed twice with […] assay buffer (composition, mM: HEPES, 20; NaCl, 120; KCl, 2; CaCl2, 2; MgCl2, 1; glucose, 5; pH 7.4 at 25 ° C.) containing 5 μM DiBAC(4)3 and incubated with […] of the buffer in a cell incubator for 30 minutes at 37 ° C. to ensure dye distribution across the membrane. After recording the baseline fluorescence for 5 minutes, the reference or test compounds, prepared at 10 times the concentration in the assay buffer, were added directly to the wells. Changes in fluorescence were monitored for an additional 25 minutes. Hyperpolarization responses were corrected for any background noise and were normalized to the response observed with 10 μM of the reference compound P1075, N"-cyano-N-(tert-pentyl)-N'-(3-pyridinyl)quanidine, which was assigned as 100%. P1075 is a potent opener of smooth muscle KATP channels (Quast et al., Mol. Pharmacol., v. 43 pp. 474-481 (1993)) and was prepared using the procedures described in (Manley, J. Med. Chem. (1992) 35, 2327-2340), hereby incorporated by reference. […]

[2] = tested on: potassium channel; experiment: Functional Potassium Channel Opening Activity in Isolated Bladder Strips (electrically stimulated twitch); settings: Landrace pig bladder strips; for Index: ED50 of P1075 divided by ED50 of test agonist, averaged over tissues; for Efficacy (% P1075): maximal efficacy relative to P1075, field stimulation 0.05 Hz; for pD2: negative logarithm of ED50
Protocol: Compounds of the present invention were evaluated for functional potassium channel opening activity using tissue strips obtained from Landrace pig bladders.
Landrace pig bladders were obtained from female Landrace pigs of 9-30 kg. Landrace pigs wer eutanized with an intraperitoneal injection of pentobarbital solution, Somlethal®, J. A. Webster Inc., Sterling Mass. The entire bladder was removed and immediately placed into Krebs Ringer bicarbonate solution (composition, mM: NaCl, 120; NaHCO3, 20; dextrose, 11; KCl, 4.7; CaCl2, 2.5; MgSO4, 1.5; KH2 PO4, 1.2; K2 EDTA, 0.01, equilibrated with 5% CO2 /95% O2 pH 7.4 at 37 ° C.). Propranolol (0.004 mM) was included in all of the assays to block β-adrenoceptors. The trigonal and dome portions were discarded. Strips 3-5 mm wide and 20 mm long were prepared from the remaining tissue cut in a circular fashion. The mucosal layer was removed. One end was fixed to a stationary glass rod and the other to a Grass FT03 transducer at a basal preload of 1.0 gram. Two parallel platinum electrodes were included in the stationary glass rod to provide field stimulation of 0.05 Hz, 0.5 milli-seconds at 20 volts. This low frequency stimulation produced a stable twitch response of 100-500 centigrams. Tissues were allowed to equilibrate for at least 60 minutes and primed with 80 mM KCl. A control concentration response curve (cumulative) was generated for each tissue using the potassium channel opener P1075 as the control agonist. […] After a 60 minute rinsing period, a concentration response curve (cumulative) was generated for the test agonist in the same fashion as that used for the control agonist P1075. The maximal efficacy of each compounds (expressed as % relative to P1075) is reported. The amount of agent necessary to cause 50% of the agent's maximal response (ED50) was calculated using "ALLFIT" (DeLean et al., Am. J. Physiol., 235, E97 (1980)), hereby incorporated by reference, and agonist potencies were expressed as pD2 (the negative logarithm). Agonist potencies were also expressed as an index relative to P1075. The index was calculated by dividing the ED50 for P1075 by the ED50 for the test agonist in a given tissue. Each tissue was used for only one test agonist, and the indices obtained from each tissue were averaged to provide an average index of potency.

[3] = target: smooth muscle KATP channels (Rattus norvegicus, UniProt Q63563); settings: Quast et al., Mol. Pharmacol., v. 43 pp. 474-481 (1993); cited from earlier work
Chain of smooth muscle KATP channels (Q63563 1-1545 isoform Q63563-2): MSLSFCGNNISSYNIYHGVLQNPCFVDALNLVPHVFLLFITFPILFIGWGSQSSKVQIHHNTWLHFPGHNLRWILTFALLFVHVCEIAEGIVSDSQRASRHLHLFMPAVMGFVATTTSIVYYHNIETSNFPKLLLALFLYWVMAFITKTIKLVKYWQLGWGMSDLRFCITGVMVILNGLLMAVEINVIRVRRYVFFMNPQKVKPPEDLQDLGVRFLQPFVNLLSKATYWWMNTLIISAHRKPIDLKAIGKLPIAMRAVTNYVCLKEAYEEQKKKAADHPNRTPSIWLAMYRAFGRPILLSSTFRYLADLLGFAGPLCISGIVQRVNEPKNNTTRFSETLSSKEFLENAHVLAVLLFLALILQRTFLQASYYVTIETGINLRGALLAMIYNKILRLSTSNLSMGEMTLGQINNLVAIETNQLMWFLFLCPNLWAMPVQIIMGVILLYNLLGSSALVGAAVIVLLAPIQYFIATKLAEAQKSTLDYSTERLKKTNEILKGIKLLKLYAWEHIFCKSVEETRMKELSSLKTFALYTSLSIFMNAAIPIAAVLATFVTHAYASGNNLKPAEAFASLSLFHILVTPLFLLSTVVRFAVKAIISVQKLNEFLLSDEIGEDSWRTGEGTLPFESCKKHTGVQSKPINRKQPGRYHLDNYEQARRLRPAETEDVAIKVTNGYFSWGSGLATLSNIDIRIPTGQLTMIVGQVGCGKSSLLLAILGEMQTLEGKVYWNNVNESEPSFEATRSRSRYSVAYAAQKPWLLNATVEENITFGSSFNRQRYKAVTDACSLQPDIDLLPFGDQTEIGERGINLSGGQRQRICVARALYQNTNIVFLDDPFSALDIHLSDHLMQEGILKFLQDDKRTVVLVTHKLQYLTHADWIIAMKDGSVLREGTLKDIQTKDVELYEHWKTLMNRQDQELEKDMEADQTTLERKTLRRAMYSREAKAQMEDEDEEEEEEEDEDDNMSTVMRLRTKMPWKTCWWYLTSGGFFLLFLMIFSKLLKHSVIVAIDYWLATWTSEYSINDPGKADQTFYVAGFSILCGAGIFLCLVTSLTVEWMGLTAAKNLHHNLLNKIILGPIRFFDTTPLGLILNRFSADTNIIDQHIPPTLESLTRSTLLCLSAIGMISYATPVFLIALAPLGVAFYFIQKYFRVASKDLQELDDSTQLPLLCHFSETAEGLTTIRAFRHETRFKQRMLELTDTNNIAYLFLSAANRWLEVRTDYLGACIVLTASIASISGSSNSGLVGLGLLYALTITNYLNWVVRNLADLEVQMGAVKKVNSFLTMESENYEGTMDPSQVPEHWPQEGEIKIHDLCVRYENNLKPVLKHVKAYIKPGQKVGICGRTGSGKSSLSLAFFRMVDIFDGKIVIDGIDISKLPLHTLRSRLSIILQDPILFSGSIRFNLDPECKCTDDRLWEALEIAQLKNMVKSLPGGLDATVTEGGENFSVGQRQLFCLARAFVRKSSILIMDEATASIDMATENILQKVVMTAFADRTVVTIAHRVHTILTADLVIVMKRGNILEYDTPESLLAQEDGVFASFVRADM
Chain of smooth muscle KATP channels (Q63664 whole entry partner): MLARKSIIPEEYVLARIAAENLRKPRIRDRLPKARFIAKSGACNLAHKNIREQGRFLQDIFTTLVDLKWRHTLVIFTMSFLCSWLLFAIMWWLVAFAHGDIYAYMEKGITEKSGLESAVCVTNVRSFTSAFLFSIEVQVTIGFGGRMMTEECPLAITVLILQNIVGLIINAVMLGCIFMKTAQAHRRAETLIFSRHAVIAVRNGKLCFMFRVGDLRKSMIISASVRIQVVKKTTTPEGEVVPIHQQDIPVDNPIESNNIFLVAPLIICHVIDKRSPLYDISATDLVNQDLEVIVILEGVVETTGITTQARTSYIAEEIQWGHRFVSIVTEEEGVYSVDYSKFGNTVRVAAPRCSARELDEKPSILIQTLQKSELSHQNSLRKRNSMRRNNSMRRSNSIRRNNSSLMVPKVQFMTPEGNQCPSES

Row | Compound | EC50 [1] [nM] | Maximal Response (% P1075) [1] [% P1075] | Index [2] | Efficacy (% P1075) [2] [% P1075] | pD2 [2] | elimination of the stimulated twitch ([2]; dose dependent over 10^-9 to 10^-5 M) | opener of smooth muscle KATP channels [3]
1 | O=C1CCCC2=C1C(c1ccc(F)c(Br)c1)n1nccc1N2 (single isomer, unassigned; (+)) [Example 16, (+) 9-(3-bromo-4-fluorophenyl)-5,6,7,9-tetrahydropyrazolo [5,1-b]quinazolin-8(4H)-one] | 20 | 105 | 0.28 | 95 | 6.34 | – | –
2 | O=C1CCCC2=C1C(c1ccc(F)c(Br)c1)n1nccc1N2 (single isomer, unassigned; (-)) [Example 15, (-) 9-(3-bromo-4-fluorophenyl)-5,6,7,9-tetrahydropyrazolo[5,1-b]quinazolin-8(4H)-one] | 51 | 103 | 0.21 | 100 | 6.67 | – | –
3 | O=C1CCCC2=C1C(c1ccc(F)c(Br)c1)n1nccc1N2 (stereo not drawn) [Example 1] | 31 | 87 | 0.26 | 96 | 6.47 | – | –
4 | O=C1CSCC2=C1C(c1ccc(F)c(Br)c1)n1nccc1N2 (stereo not drawn) [Example 2, 9-(3-bromo-4-fluorophenyl)-5,9-dihydro-4H-pyrazolo[1,5-a]thiopyrano[3,4-d]pyrimidin-8(7H)-one] | 40 | 100 | – | – | – | – | –
5 | O=C1CCCC2=C1C(c1cccc3ccccc13)n1nccc1N2 (stereo not drawn) [Example 3, 9-(1-naphthyl)-5,6,7,9-tetrahydropyrazolo[5,1-b]quinazolin-8(4H)-one] | 24000 | 34 | – | – | – | – | –
6 | O=C1CCCC2=C1C(c1ccc3ccccc3c1)n1nccc1N2 (stereo not drawn) [Example 4, 9-(2-naphthyl)-5,6,7,9-tetrahydropyrazolo[5,1-b]quinazolin-8(4H)-one] | 429 | 96 | – | – | – | – | –
7 | O=C1CCCC2=C1C(c1ccc(Br)c(Br)c1)n1nccc1N2 (stereo not drawn) [Example 5, 9-(3 4-dibromophenyl)-5,6,7,9-tetrahydropyrazolo[5,1-b]quinazolin-8(4H)-one] | 122 | 98 | – | – | – | – | –
8 | O=C1CCCC2=C1C(c1ccc(Cl)c(Cl)c1)n1nccc1N2 (stereo not drawn) [Example 6, 9-(3,4-dichlorophenyl)-5,6,7,9-tetrahydropyrazolo [5,1-b]quinazolin-8(4H)-one] | 130 | 95 | – | – | – | – | –
9 | O=C1CCCC2=C1C(c1cccc(Br)c1)n1nccc1N2 (stereo not drawn) [Example 7, 9-(3-bromophenyl)-5,6,7,9-tetrahydropyrazolo[5,1-b]quinazolin-8(4H)-one] | 550 | 98 | – | – | – | – | –
10 | O=C1CCCC2=C1C(c1cccc(Cl)c1)n1nccc1N2 (stereo not drawn) [Example 8, 9-(3-chlorophenyl)-5,6,7,9-tetrahydropyrazolo[5,1-b]quinazolin-8(4H)-one] | 1120 | 92 | – | – | – | – | –
11 | O=C1CCCC2=C1C(c1ccc(Cl)c(C(F)(F)F)c1)n1nccc1N2 (stereo not drawn) [Example 9, 9-[4-chloro-3-(trifluoromethyl)phenyl]-5,6,7,9-tetrahydropyrazolo[5,1-b]quinazolin-8(4H)-one] | 187 | 94 | – | – | – | – | –
12 | O=C1CCCC2=C1C(c1ccc(F)c(C(F)(F)F)c1)n1nccc1N2 (stereo not drawn) [Example 10, 9-[4-fluoro-3-(trifluoromethyl)phenyl]-5,6,7,9-tetrahydropyrazolo[5,1-b]quinazolin-8(4H)-one] | 290 | 100 | – | – | – | – | –
13 | O=C1CCCC2=C1C(c1cccc(OC(F)(F)F)c1)n1nccc1N2 (stereo not drawn) [Example 11, 9-[3-(trifluoromethoxy)phenyl]-5,6,7,9-tetrahydropyrazolo[5,1-b]quinazolin-8(4H)-one] | 1710 | 90 | – | – | – | – | –
14 | N#Cc1cccc(C2C3=C(CCCC3=O)Nc3ccnn32)c1 (stereo not drawn) [Example 12, 9-(3-cyanophenyl)-5,6,7,9-tetrahydropyrazolo[5,1-b]quinazolin-8(4H)-one] | 2860 | 85 | – | – | – | – | –
15 | Cc1cccc(C2C3=C(CCCC3=O)Nc3ccnn32)c1 (stereo not drawn) [Example 13, 9-(3-methylphenyl)-5,6,7,9-tetrahydropyrazolo[5,1-b]quinazolin-8(4H)-one] | 10000 | 50 | – | – | – | – | –
16 | O=C1OCC2=C1C(c1ccc(F)c(Br)c1)n1nccc1N2 (stereo not drawn) [Example 14, 8-(3-bromo-4-fluorophenyl)-5,8-dihydro-4H,7H-furo[3,4-d]pyrazolo[1,5-a]pyrimidin-7-one] | 258 | 89 | – | – | – | – | –
17 | O=S1(=O)CCCC2=C1C(c1ccc(F)c(Br)c1)n1nccc1N2 (stereo not drawn) [Example 17] | 910 | 89 | – | – | – | – | –
18 | CCC(C)(C)NC(=NC#N)Nc1cccnc1 [Example P1075, N"-cyano-N-(tert-pentyl)-N'-(3-pyridinyl)quanidine, reference compound] | – | – | – | – | – | completely eliminated the stimulated twitch | potent opener
